Measured values published in US20050176655A1, “Novel macrolide derivatives havaing effect of potentiating antifungal activity” (priority 2002, published 2005).

Columns and labels:
Test in all cases: Paper disk method, enhancing action for activities of azole antifungal agents
Assay type in all cases: cell-based
[1] = test system: Candida albicans ATCC 64548; conditions: 24 hours; for Inhibition activity (inhibition ring mm) C. albicans ATCC 64548 GYM / Transparency of the inhibition ring C. albicans ATCC 64548 GYM: miconazole 0.03 μg/ml; for Inhibition activity (inhibition ring mm) C. albicans ATCC 64548 GYF / Transparency of the inhibition ring C. albicans ATCC 64548 GYF: fluconazole 0.5 μg/ml
Method in brief: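 GY agar (pH 6.0) seeded with C. albicans ATCC 64548 precultured in Waksman broth at 27° C for 40 hours, supplemented with sub-growth-inhibitory miconazole 0.03 μg/ml or fluconazole 0.5 μg/ml. Paper disk method; inhibition-zone diameter (mm) read after 24 hours, transparency graded A–E.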

[2] = test system: fluconazole resistant Candida albicans ATCC 64550; conditions: 24 hours; for Inhibition activity (inhibition ring mm) C. albicans ATCC 64550 GYF / Transparency of the inhibition ring C. albicans ATCC 64550 GYF: fluconazole 30 μg/ml; for Inhibition activity (inhibition ring mm) C. albicans ATCC 64550 GYM / Transparency of the inhibition ring C. albicans ATCC 64550 GYM: miconazole 0.15 μg/ml
Experimental: Test organisms used were Candida albicans ATCC 64548, fluconazole resistant Candida albicans ATCC 64550 and Aspergillus niger ATCC 6275. Candida spp. were cultured in Waksman broth (glucose 2.0%, peptone 0.5%, dry yeast 0.3%, meat extract 0.5%, NaCl 0.5% and CaCO3 0.3%, pH 7.0) at 27° C. for 40 hours, then 0.1% thereof was inoculated on GY agar medium (glucose 1.0%, yeast extract 0.5% and agar 0.8%, pH 6.0). Spore suspension 0.2% of Aspergillus niger ATCC 6275 was inoculated on GY agar medium.
Azole antifungal agents used were miconazole (Sigma Inc., the U.S.) and fluconazole (ICN Pharmaceuticals, Inc., the U.S.), and were added at concentrations without affecting growth on each test organisms follows.
Candida albicans ATCC 64550: miconazole 0.15 μg/ml or fluconazole 30 μg/ml.
In the above medium, a medium added with miconazole to GY medium (control) is designated as GYM, and a medium added with fluconazole is designated as GYF. Activities were assessed by means of paper disk method (thickness: 8 mm, ADVANTEC MFS INC., Japan). Diameter of inhibition ring is expressed with mm unit after culturing Candida spp. for 24 hours and Aspergillus niger ATCC 6275 for 48 hours. Transparency of the inhibition ring is assessed with 5 degrees of A, B, C, D and E (transparence<A<B<C<D<E<opaque).

[3] = test system: Aspergillus niger ATCC 6275; conditions: 48 hours; for Inhibition activity (inhibition ring mm) A. niger ATCC 6275 GYF / Transparency of the inhibition ring A. niger ATCC 6275 GYF: fluconazole 10 μg/ml; for Inhibition activity (inhibition ring mm) A. niger ATCC 6275 GYM / Transparency of the inhibition ring A. niger ATCC 6275 GYM: miconazole 0.1 μg/ml
Method in brief: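 Paper-disk assay on A. niger ATCC 6275 spores (0.2%) seeded on GY agar pH 6.0. After 48 h, inhibition-zone diameter recorded in mm and transparency graded A (transparent) to E (opaque).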

SMILES | Inhibition activity (inhibition ring mm) C. albicans ATCC 64548 GYM ([1]; 50 μg/8 mm disk) [mm] | Transparency of the inhibition ring C. albicans ATCC 64548 GYM ([1]; 50 μg/8 mm disk) | Inhibition activity (inhibition ring mm) C. albicans ATCC 64550 GYF ([2]; 50 μg/8 mm disk) [mm] | Transparency of the inhibition ring C. albicans ATCC 64550 GYF ([2]; 50 μg/8 mm disk) | Inhibition activity (inhibition ring mm) C. albicans ATCC 64550 GYM ([2]; 50 μg/8 mm disk) [mm] | Transparency of the inhibition ring C. albicans ATCC 64550 GYM ([2]; 50 μg/8 mm disk) | Inhibition activity (inhibition ring mm) A. niger ATCC 6275 GYF ([3]; 10 μg/8 mm disk) [mm] | Transparency of the inhibition ring A. niger ATCC 6275 GYF ([3]; 10 μg/8 mm disk) | Inhibition activity (inhibition ring mm) A. niger ATCC 6275 GYF ([3]; 50 μg/8 mm disk) [mm] | Transparency of the inhibition ring A. niger ATCC 6275 GYF ([3]; 50 μg/8 mm disk) | Inhibition activity (inhibition ring mm) A. niger ATCC 6275 GYM ([3]; 50 μg/8 mm disk) [mm] | Transparency of the inhibition ring A. niger ATCC 6275 GYM ([3]; 50 μg/8 mm disk) | further results
CCC(OC(=O)c1ccccc1)C(C)(O)C1OC(=O)C(C)C(OC2CC(C)(OC)C(OC(=O)c3ccccc3)C(C)O2)C(C)C(OC2OC(C)CC(N(C)C)C2OC(C)=O)C2(C)CC(C)=C(O2)C1C (stereo not drawn) [Compound 773, 2′-O-acetyl-4″,13-Di-O-benzoyl-8,9-Anhydro-pseudoerythromycin A 6,9-hemiketal] | 16 | A (Growth of test organism was inhibited 95% or more.) | 15 | A (Growth of test organism was inhibited 95% or more.) | 14 | A (Growth of test organism was inhibited 95% or more.) | 10 | E (Growth of test organism was inhibited 35% or less.) | 15 | E (Growth of test organism was inhibited 35% or less.) | 15 | B (Growth of test organism was inhibited 75% of more and 95% or less.) | Inhibition activity (inhibition ring mm) C. albicans ATCC 64548 GYM ([1]; 10 μg/8 mm disk): 13 mm; Transparency of the inhibition ring C. albicans ATCC 64548 GYM ([1]; 10 μg/8 mm disk): C (Growth of test organism was inhibited 55% or more and 75% or less.); Inhibition activity (inhibition ring mm) C. albicans ATCC 64548 GYF ([1]; 50 μg/8 mm disk): 12 mm; Transparency of the inhibition ring C. albicans ATCC 64548 GYF ([1]; 50 μg/8 mm disk): E (Growth of test organism was inhibited 35% or less.); Inhibition activity (inhibition ring mm) C. albicans ATCC 64550 GYF ([2]; 10 μg/8 mm disk): 11 mm; Transparency of the inhibition ring C. albicans ATCC 64550 GYF ([2]; 10 μg/8 mm disk): E (Growth of test organism was inhibited 35% or less.); Inhibition activity (inhibition ring mm) C. albicans ATCC 64550 GYM ([2]; 10 μg/8 mm disk): 10 mm; Transparency of the inhibition ring C. albicans ATCC 64550 GYM ([2]; 10 μg/8 mm disk): C (Growth of test organism was inhibited 55% or more and 75% or less.); Inhibition activity (inhibition ring mm) A. niger ATCC 6275 GYM ([3]; 10 μg/8 mm disk): 13 mm; Transparency of the inhibition ring A. niger ATCC 6275 GYM ([3]; 10 μg/8 mm disk): E (Growth of test organism was inhibited 35% or less.)
CCC(=O)OC1C(C)OC(OC2C(C)C(=O)OC(C(C)(O)C(CC)OC(=O)CC)C(C)C3=C(C)CC(C)(O3)C(OC3OC(C)CC(N(C)C)C3O)C2C)CC1(C)OC (stereo not drawn) [Compound 776, 4″,13-Di-O-propionyl-8,9-Anhydro-pseudo-erythromycin A 6,9-hemiketal] | 11 | D (Growth of test organism was inhibited 35% or more and 55% or less.) | 9 | E (Growth of test organism was inhibited 35% or less.) | 11 | E (Growth of test organism was inhibited 35% or less.) | 16 | E (Growth of test organism was inhibited 35% or less.) | 16 | E (Growth of test organism was inhibited 35% or less.) | 20 | C (Growth of test organism was inhibited 55% or more and 75% or less.) | Inhibition activity (inhibition ring mm) C. albicans ATCC 64548 GYF ([1]; 100 μg/8 mm disk): 15 mm; Transparency of the inhibition ring C. albicans ATCC 64548 GYF ([1]; 100 μg/8 mm disk): E (Growth of test organism was inhibited 35% or less.)
